From patent US20180118708A1, “CYCLIC COMPOUND” (Takeda Pharmaceutical Company Limited, priority 2015, published 2018)

Columns and labels:
TLR4 = target: T1, TLR4 (Mus musculus, UniProt Q9QUK6); assay: Inhibitory effect with respect to NO production (LPS/interferon γ stimulated RAW264.7 cells); format: cell-based, murine; settings: test compound 100 nM, LPS 1.25 ng/mL + mouse interferon γ 0.2 ng/mL, nitrite ion in culture supernatant
T1 construct: endogenous in cells; host or cells: RAW264.7 (murine macrophage cell line)
T1 sequence (Q9QUK6 26-835): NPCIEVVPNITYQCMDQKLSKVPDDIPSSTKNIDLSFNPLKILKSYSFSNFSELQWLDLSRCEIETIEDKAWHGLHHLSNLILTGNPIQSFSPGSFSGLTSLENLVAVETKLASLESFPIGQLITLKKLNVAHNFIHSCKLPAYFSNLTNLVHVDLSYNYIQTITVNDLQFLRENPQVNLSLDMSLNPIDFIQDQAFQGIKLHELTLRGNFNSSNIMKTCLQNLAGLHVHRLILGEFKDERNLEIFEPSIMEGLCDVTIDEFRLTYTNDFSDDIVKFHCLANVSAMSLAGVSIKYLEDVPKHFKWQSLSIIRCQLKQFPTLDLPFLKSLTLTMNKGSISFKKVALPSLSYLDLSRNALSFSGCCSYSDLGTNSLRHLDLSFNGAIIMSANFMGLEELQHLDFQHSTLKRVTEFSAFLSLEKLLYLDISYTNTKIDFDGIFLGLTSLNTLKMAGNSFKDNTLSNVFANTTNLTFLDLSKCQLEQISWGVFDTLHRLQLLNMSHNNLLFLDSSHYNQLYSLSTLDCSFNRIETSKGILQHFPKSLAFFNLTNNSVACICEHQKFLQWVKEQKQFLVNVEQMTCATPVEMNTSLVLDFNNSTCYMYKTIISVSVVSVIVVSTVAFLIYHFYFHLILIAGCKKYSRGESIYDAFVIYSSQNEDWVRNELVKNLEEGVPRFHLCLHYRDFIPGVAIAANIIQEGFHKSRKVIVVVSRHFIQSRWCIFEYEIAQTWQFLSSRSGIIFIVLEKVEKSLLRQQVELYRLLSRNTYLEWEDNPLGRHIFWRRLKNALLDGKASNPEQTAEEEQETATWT
T1 sequence (Q9JHF9 19-160 partner): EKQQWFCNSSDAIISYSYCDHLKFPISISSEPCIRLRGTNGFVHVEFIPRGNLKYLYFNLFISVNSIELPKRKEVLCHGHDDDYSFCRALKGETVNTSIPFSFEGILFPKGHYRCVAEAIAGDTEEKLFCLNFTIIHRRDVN
Method: Inhibitory Effect With Respect to NO Production
The inhibitory effect on TLR4 was determined using the inhibition rate due to the test compound with respect to NO production as a result of addition of lipopolysaccharide (LPS) using murine macrophage cell line RAW264.7. The cells were adjusted to 2×10^6 cells/mL using RPM1-1640 culture medium (phenol red free) supplemented with 10% inactivated bovine fetal serum, and were plated on 384 well plate so as to contain 6×10^4 cells/30 μL per well. Thereafter the cells were cultured at 37° C. overnight under 5% CO2/95% air. The test compound dissolved in DMSO was diluted 200 times using RPM1-1640 culture medium and adjusted so as to form a compound concentration of 500 nM. The prepared test compound 10 μL (final concentration 100 nM) was added to the cells, and LPS (Sigma) and mouse interferon γ (Wako Pure Chemicals) were added in amounts of 10 μL so as to form final concentrations of 1.25 ng/mL and 0.2 ng/mL respectively. The cells were further cultured overnight, and then the nitrite ion (stable NO metabolite) concentration in the culture supernatant was measured as an index of NO production. The nitrite ion concentration was assayed by adding 10 μL of 20 μg/mL 2,3-diamino naphthalene (DAN) dissolved in 0.2N HCl to 20 μL culture supernatant, incubating at room temperature for ten minutes, and then adding 10 μL of 0.5N NaOH, and measuring the fluorescent value at 460 nm (excitation wavelength 355 nm) using an EnVision plate reader (Perkin Elmer). The NO production inhibition rate (%) was calculated using the value without the addition of stimulating agent as control of 100% inhibition, and the value without the addition of the compound as control of 0% inhibition.

TNFα = assay: Effect with respect to blood TNF-α concentration elevation by LPS stimulation; format: in vivo; settings: oral, female BALB/c mice, LPS 5 mg/kg i.p. one hour after compound, serum sampled one hour later, vs control group
Text: Effect With Respect to Blood TNF-α Concentration Elevation by LPS Stimulation
Various kinds of cytokines are produced in vivo accompanying inflammatory response and abnormal immunity or the like. Therefore, the action of test compound with respect to blood TNFa concentration rise was investigated using laboratory animals.
Female BALB/c mice (6 weeks old) were purchased, and, after preliminary rearing for about 1 week, the mice were divided into groups of four animals. […] Solvent was administered to control group in the same way. LPS (5 mg/kg) was administered intraperitoneally to the test group and the control group one hour after the administration of the test compound or solvent, and blood was sampled one hour later. The serum was separated from the obtained blood, and the TNFα concentration in the serum was measured using an assay kit made by R&D Systems Inc. The inhibition rates of the test group with respect to the control group are shown in Table 3.

Compound | NO production inhibitory effect at 100 nM (% inhibition) (TLR4; 0.1 µM) | Blood TNFα inhibition rate (% inhibition) (TNFα; Dose 10 mg/kg) | NO production inhibitory effect at 100 nM (% inhibition) (TLR4) | Blood TNFα inhibition rate (% inhibition) (TNFα; Dose 20 mg/kg)
CCOC(=O)C1=CC2(CCC1S(=O)(=O)Cc1ccc(F)cc1Cl)O[C@@H](CO)[C@H](CO)O2 (single isomer, unassigned) [Compound 7] | 100 | 92.4 | – | –
CCOC(=O)C1=CC2(CCC1S(=O)(=O)Cc1ccc(F)cc1Cl)O[C@H](CO)[C@@H](CO)O2 (single isomer, unassigned) [Compound 14] | 100 | 82.8 | – | –
CCOC(=O)C1=CC2(CCC1S(=O)(=O)Cc1ccc(F)cc1Cl)O[C@@H](CO)[C@H](CO)O2 (stereo partly drawn) [Compound 1, ethyl (2S,3S)-8-((2-chloro-4-fluorobenzyl)sulfonyl)-2,3-bis(hydroxymethyl)-1,4-dioxaspiro[4.5]dec-6-ene-7-carboxylate] | – | – | 107 | 83.3
CCOC(=O)C1=CC2(CCC1S(=O)(=O)Cc1ccc(F)cc1Cl)O[C@H](CO)[C@@H](CO)O2 (stereo partly drawn) [Compound 2, ethyl (2R,3R)-8-((2-chloro-4-fluorobenzyl)sulfonyl)-2,3-bis(hydroxymethyl)-1,4-dioxaspiro[4.5]dec-6-ene-7-carboxylate] | – | – | 106 | 84.5
CCOC(=O)C1=CC2(CCC1S(=O)(=O)Cc1cccc(Cl)c1)O[C@H](CO)[C@@H](CO)O2 (stereo partly drawn) [Compound 3, ethyl (2R,3R)-8-((3-chlorobenzyl)sulfonyl)-2,3-bis(hydroxymethyl)-1,4-dioxaspiro[4.5]dec-6-ene-7-carboxylate] | – | – | 100 | 84.9
CCOC(=O)C1=CC2(CCC1S(=O)(=O)Cc1cccc(Cl)c1)O[C@@H](CO)[C@H](CO)O2 (stereo partly drawn) [Compound 24, ethyl (2S,3S)-8-((3-chlorobenzyl)sulfonyl)-2,3-bis(hydroxymethyl)-1,4-dioxaspiro[4.5]dec-6-ene-7-carboxylate] | – | – | 100 | 91.5
CCOC(=O)C1=CC2(CCC1S(=O)(=O)Cc1cccc(C)c1)O[C@@H](CO)[C@H](CO)O2 (stereo partly drawn) [Compound 25, ethyl (2S,3S)-2,3-bis(hydroxymethyl)-8-((3-methylbenzyl)sulfonyl)-1,4-dioxaspiro[4.5]dec-6-ene-7-carboxylate] | – | – | 98 | 93.8
CCOC(=O)C1=CC2(CC[C@H]1S(=O)(=O)Cc1cccc(Cl)c1)O[C@H](CO)[C@@H](CO)O2 [Compound 30, ethyl (2R,3R,8R)-8-((3-chlorobenzyl)sulfonyl)-2,3-bis(hydroxymethyl)-1,4-dioxaspiro[4.5]dec-6-ene-7-carboxylate] | – | – | 106 | –
CCOC(=O)C1=CC2(CC[C@H]1S(=O)(=O)Cc1ccccc1Cl)O[C@H](CO)[C@@H](CO)O2 [Compound 31, ethyl (2R,3R,8R)-8-((2-chlorobenzyl)sulfonyl)-2,3-bis(hydroxymethyl)-1,4-dioxaspiro[4.5]dec-6-ene-7-carboxylate] | – | – | 103 | –
CCOC(=O)C1=CC2(CC[C@H]1S(=O)(=O)Cc1ccccc1Cl)O[C@@H](CO)[C@H](CO)O2 [Compound 32, ethyl (2S,3S,8R)-8-((2-chlorobenzyl)sulfonyl)-2,3-bis(hydroxymethyl)-1,4-dioxaspiro[4.5]dec-6-ene-7-carboxylate] | – | – | 114 | –
